This is an account of results in BindingDB's records for doi:10.1016/j.bmc.2013.10.018 (Baylor College of Medicine, 2014).

The target in experiment [1] is T1, Signal transducer and activator of transcription 3 (Homo sapiens, UniProt P40763). Description: Inhibition of Stat3 phosphorylation in human OVCAR3 cells by Western blotting analysis in normoxia condition. (In general: A western blot detects proteins with antibodies after separation by electrophoresis.)
Experiment [2] deals with T1, Signal transducer and activator of transcription 3. Description: Inhibition of Stat3 phosphorylation in human PANC1 cells by Western blotting analysis in normoxia condition.
Experiment [3] has the same target. Description: Inhibition of Stat3 phosphorylation in human MDA-MB-468 cells by Western blotting analysis in normoxia condition.
The target is the same in experiment [4]. Description: Inhibition of Stat3 phosphorylation in human MDA-MB-231 cells by Western blotting analysis in normoxia condition.
For experiment [5] the target is unchanged. Description: Inhibition of Stat3 phosphorylation in human OVCAR3 cells by Western blotting analysis in hypoxia condition.
For experiment [6] the target is unchanged. Description: Inhibition of Stat3 phosphorylation in human PANC1 cells by Western blotting analysis in hypoxia condition.
Experiment [7] has the same target. Description: Inhibition of Stat3 phosphorylation in human MDA-MB-468 cells by Western blotting analysis in hypoxia condition.
Experiment [8] has the same target. Description: Inhibition of Stat3 phosphorylation in human MDA-MB-231 cells by Western blotting analysis in hypoxia condition.
The target of experiment [9] is T2, Hypoxia-inducible factor 1-alpha (Homo sapiens, UniProt Q16665). Description: Inhibition of HIF-1 alpha in human OVCAR3 cells by Western blotting analysis in hypoxia condition.
T2 sequence (Q16665 whole entry): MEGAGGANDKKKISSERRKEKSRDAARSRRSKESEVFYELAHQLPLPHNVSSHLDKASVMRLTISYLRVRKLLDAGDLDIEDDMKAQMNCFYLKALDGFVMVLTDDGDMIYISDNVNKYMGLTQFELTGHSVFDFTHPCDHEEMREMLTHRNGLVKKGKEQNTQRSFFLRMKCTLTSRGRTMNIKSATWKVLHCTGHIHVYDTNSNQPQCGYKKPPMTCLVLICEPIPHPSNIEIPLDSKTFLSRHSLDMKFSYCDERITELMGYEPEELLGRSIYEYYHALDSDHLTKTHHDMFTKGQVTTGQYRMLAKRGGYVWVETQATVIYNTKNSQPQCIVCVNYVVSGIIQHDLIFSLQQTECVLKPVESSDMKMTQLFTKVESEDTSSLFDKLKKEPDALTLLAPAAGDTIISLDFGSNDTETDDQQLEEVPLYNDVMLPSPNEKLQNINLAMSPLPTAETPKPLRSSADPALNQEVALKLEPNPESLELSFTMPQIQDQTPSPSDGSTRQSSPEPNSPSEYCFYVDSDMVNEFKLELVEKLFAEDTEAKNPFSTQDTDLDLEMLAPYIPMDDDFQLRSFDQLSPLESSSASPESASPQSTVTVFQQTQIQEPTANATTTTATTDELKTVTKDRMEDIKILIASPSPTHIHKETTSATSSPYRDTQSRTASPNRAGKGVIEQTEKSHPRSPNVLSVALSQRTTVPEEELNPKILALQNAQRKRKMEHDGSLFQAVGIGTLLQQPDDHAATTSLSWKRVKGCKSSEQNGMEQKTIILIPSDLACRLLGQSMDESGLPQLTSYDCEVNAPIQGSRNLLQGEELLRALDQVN
The target in experiment [10] is T2, Hypoxia-inducible factor 1-alpha. Description: Inhibition of HIF-1 alpha in human PANC1 cells by Western blotting analysis in hypoxia condition.
Experiment [11] shares this target. Description: Inhibition of HIF-1 alpha in human MDA-MB-468 cells by Western blotting analysis in hypoxia condition.
For experiment [12] the target is unchanged. Description: Inhibition of HIF-1 alpha in human MDA-MB-231 cells by Western blotting analysis in hypoxia condition.

T1 sequence (P40763 whole entry): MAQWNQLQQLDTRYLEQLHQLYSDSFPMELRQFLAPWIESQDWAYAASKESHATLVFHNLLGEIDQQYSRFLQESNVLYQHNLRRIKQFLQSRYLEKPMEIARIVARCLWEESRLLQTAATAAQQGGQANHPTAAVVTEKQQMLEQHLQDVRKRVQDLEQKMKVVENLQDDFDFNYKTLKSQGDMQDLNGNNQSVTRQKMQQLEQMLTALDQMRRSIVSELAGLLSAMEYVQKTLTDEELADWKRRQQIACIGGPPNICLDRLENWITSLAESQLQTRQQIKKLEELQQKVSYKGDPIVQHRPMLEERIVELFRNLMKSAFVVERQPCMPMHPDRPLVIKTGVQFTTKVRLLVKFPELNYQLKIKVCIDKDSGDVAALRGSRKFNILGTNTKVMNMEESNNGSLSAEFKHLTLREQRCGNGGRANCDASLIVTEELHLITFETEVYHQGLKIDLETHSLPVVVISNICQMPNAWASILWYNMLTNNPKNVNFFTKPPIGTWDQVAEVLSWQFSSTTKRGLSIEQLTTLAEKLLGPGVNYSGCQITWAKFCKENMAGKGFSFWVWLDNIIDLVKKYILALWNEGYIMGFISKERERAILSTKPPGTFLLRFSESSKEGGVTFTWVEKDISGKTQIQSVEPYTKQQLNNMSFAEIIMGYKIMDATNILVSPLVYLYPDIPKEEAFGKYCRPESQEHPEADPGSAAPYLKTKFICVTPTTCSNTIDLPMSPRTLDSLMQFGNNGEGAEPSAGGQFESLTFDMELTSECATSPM

Take `CN(C)CCCN1C(=O)c2ccc3c4ccc5c6c(ccc(c7ccc(c2c37)C1=O)c64)C(=O)N(CCCN(C)C)C5=O`: the half-inhibitory concentration (IC50) in experiment [1], in [2], in experiment [3], in experiment [4], in experiment [5] and in experiment [6] was 4.5 µM in each case. For the same compound, the IC50 in experiment [7] stood at 4.5 µM; in experiment [8] it was 4.5 µM; in experiment [9], 3 µM; in experiment [10], 3 µM; in experiment [11], 3 µM; in experiment [12], 3 µM.

In general, IC50 refers to the concentration needed to halve the response being measured. Read a high IC50 as a need for much substance.
